Each structure is given as a SMILES string. ≈ marks a conversion by molar mass, not a printed value.

One assay deals with human rhinovirus (HRV) serotypes, panel B (HRV-3, -4, -5, -9, -16, -18, -38, -66, -75 and -67). The assay can be described thus: automated TCID-50 assay, rhinovirus-induced CPE in HeLa cells, panel B. The settings on record: Human rhinovirus sp., HRV3, 72 h, read-out: MIC50 (minimum concentration of the compound required to inhibit 50% of the tested serotypes). In kind it is cell-based. As to the method:
(§1) The MIC values were determined by an automated tissue culture infectious dose 50% (TCID-50) assay. HeLa cells in monoloyers in 96-well cluster plates were infected with a dilution of picornavirus which had been shown empirically to produce 80% to 100% cytopathic effect (CPE) in 3 days in the absence of drug. The compound to be tested was serially diluted through 10, 2-fold cycles and added to the infected cells. After a 3 day incubation at 33° C. and 2.5% carbon dioxide, the cells were fixed with a 5% solution of glutaraldehyde followed by staining with a 0.25% solution of crystal violet in water. The plates were then rinsed, dried, and the amount of stain remaining in the well (a measure of intact cells) was quantitated with an optical density reader. The MIC was determined to be the concentration of compound which protected 50% of the cells from picornavirus-induced CPE relative to an untreated picornavirus control.
(§2) In the above test procedures, representative compounds of formula I were tested against some the serotypes from either a panel of fifteen human rhinovirus (HRV) serotypes, (noted in the table as panel T) namely, HRV-2, -14, -1A, -1B, -6, -21, -22, -15, -25, -30, -50, -67, -89, -86 and -41 or against some of the serotypes from a panel of 10 human rhinovirus serotypes, namely HRV-3, -4, -5, -9, -16, -18, -38, -66, -75 and -67, (noted in the table as panel B) and the MIC value, expressed in micrograms per milliliter […], for each rhinopicornavirus serotype was determined for each picornavirus, example 1e is given as an example of the data. Then MIC50 values, which are the minimum concentrations of the compound required to inhibit 50% of the tested serotypes were determined.
(§3) The following Table gives the test results for representative compounds of the invention. The panel of picornaviruses used in the test appears before the MIC80 and MIC50 figure and the number of serotypes which the compound is tested against (n) is indicated after the MIC80 and MIC50 figure.
In the case of `Cc1cc(CCCn2ccc3cc(-c4noc(C(F)(F)F)n4)ccc32)on1` [Example 2i], the MIC50 was determined as 0.549 µg/mL (≈ 1.46 µM).

`Cc1cc(CCCn2ccc3cc(-c4noc(C(F)F)n4)ccc32)on1` [Example 2g]: the MIC50 stood at 69.4 µg/mL (≈ 194 µM).

Take `Cc1cc(CCCCn2ccc3cc(-c4noc(C(F)(F)F)n4)cc(C)c32)on1` [Example 2d]: the MIC50 came to 0.5 µg/mL (≈ 1.24 µM).

Take `Cc1cc(CCCn2ccc3cc(-c4noc(C)n4)ccc32)on1` [Example 2c]: the MIC50 came to 50.9 µg/mL (≈ 158 µM).

`Cc1cc(CCCCCn2ccc3cc(-c4noc(C(F)F)n4)cc(C)c32)on1` [Example 2e]: the MIC50 is 3.13 µg/mL (≈ 7.82 µM).

As for `Cc1cc(CCCn2ccc3cc(-c4noc(C)n4)cc(C)c32)on1` [Example 2h], the MIC50 is 0.158 µg/mL (≈ 0.47 µM).

For the compound `Cc1cc(CCCCCn2ccc3cc(-c4noc(C(F)(F)F)n4)cc(C)c32)on1` [Example 2f], the MIC50 is 0.307 µg/mL (≈ 0.734 µM).

Test system in a further assay: not listed separately
The assay can be described thus: automated TCID-50 assay, rhinovirus-induced CPE in HeLa cells, panel T. In kind it is cell-based. The settings on record: Human rhinovirus sp., HRV2, 72 h, read-out: MIC50 (minimum concentration of the compound required to inhibit 50% of the tested serotypes). As to the method: as §1, §2, §3
Take `Cc1cc(CCCc2cc3cc(-c4noc(C)n4)cc(C)c3o2)on1` [Example 1g]: the MIC50 was 6.85 µg/mL (≈ 20.3 µM).

`CCCCn1nnc(-c2cc(C)c3oc(CCCCc4cc(C)no4)cc3c2)n1` [Example 1l]: the MIC50 was found to be 49.8 µg/mL (≈ 127 µM).

`Cc1cc(CCCCc2cc3cc(-c4noc(C)n4)ccc3o2)on1` [Example 1f]: the MIC50 was determined as 19.9 µg/mL (≈ 59 µM).

Turning to `Cc1cc(CCCCc2cc3cc(-c4noc(C)n4)cc(Cl)c3o2)on1` [Example 1h], the MIC50 came to 0.124 µg/mL (≈ 0.333 µM).

Take `Cc1cc(CCCCCc2cc3cc(C4=NCCO4)ccc3o2)on1` [Example 1k]: the MIC50 was found to be 0.585 µg/mL (≈ 1.73 µM).

In the case of `Cc1cc(CCCc2cc3cc(-c4nnn(C)n4)cc(C)c3o2)on1` [Example 1m], the MIC50 is 0.192 µg/mL (≈ 0.569 µM).

As to `Cc1cc(CCCCCc2cc3cc(C(=O)O)ccc3o2)on1` [Example 1j], the MIC50 was 51.1 µg/mL (≈ 163 µM).

As for `Cc1cc(CCCCc2cc3cc(-c4noc(C(F)(F)F)n4)cc(C)c3o2)on1` [Example 1i], the MIC50 stood at 37.4 µg/mL (≈ 92.2 µM).

Consider `Cc1cc(CCc2cc3cc(-c4nnn(C)n4)cc(C)c3o2)on1` [Example 1n], for which the MIC50 came out at 33.8 µg/mL (≈ 105 µM).

The values above are taken from patent US5523312A, “Antipicornaviral agents” (priority 1994, dated 1996).
